*: point of attachment. Biotin = O=C1N[C@H]2[C@H](CS[C@H]2CCCCC(=O)*)N1
Key:
MMSC2 PDZ domain 1 (P15) = biological target: T1, MMSC2 PDZ domain 1 (P15) (Homo sapiens, UniProt O75970); assay: PDZ binding assay (ELISA), PDZ domain 1; conditions: immobilized GST-PDZ domain 1 (P15); biotinylated peptide pre-bound to streptavidin-alkaline phosphatase; colorimetric phosphatase assay
T1 construct: 136-222; made in house; host or cells: E. coli
T1 sequence (O75970 136-222 isoform O75970-3): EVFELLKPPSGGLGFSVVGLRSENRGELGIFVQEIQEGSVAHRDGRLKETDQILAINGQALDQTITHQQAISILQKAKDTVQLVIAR
Description: (§1) cDNAs encoding each of the MMSC2 PDZ domains (amino acid residues identified in Table 1), and any desired control proteins, were generated by PCR and subcloned as glutathione S-transferase (GST) fusions in pGEX vectors (Pharmacia). After sequencing to confirm expression construct integrity, the resulting clones were expressed in E. coli and the desired fusion proteins isolated with glutathione-agarose and recovered with glutathione elution. These fusion proteins or control proteins were then adsorbed to different wells of a 96-well ELISA plate and remaining sites blocked with BSA. Synthetic commercially synthesized peptides encoding the desired PDZ-binding domain (i.e., the 16 C-terminal amino acids of MMAC1, or the C-terminal peptide sequences of interacting proteins identified by the approach of Example 2, or the C-terminal peptide sequences identified by the approach of Example 3), or a control peptide, and biotinylated at the amino-terminus, were pre-bound to streptavidin-alkaline phosphatase in a 4:1 molar ratio. […] Bound peptide/streptavidin-alkaline phosphatase complex was then quantitated by a colorimetric phosphatase assay read on a 96-well plate reader. […]
(§2) The relative affinity of each of the 13 PDZ domains encoded by MMSC2 for an MMAC1 C-terminal PDZ peptide as measured by an ELISA assay is set forth in Table 2.

MMSC2 PDZ domain 2 (P14) = biological target: T2, MMSC2 PDZ domain 2 (P14) (Homo sapiens, UniProt O75970); assay: PDZ binding assay (ELISA), PDZ domain 2; conditions: immobilized GST-PDZ domain 2 (P14); biotinylated peptide pre-bound to streptavidin-alkaline phosphatase; colorimetric phosphatase assay
T2 construct: 256-335; made in house; host or cells: E. coli
T2 sequence (O75970 256-335 isoform O75970-3): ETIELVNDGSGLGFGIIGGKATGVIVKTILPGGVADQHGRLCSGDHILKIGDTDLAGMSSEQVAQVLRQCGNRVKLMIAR
Description: as §1, §2

MMSC2 PDZ domain 3 (P13) = biological target: T3, MMSC2 PDZ domain 3 (P13) (Homo sapiens, UniProt O75970); assay: PDZ binding assay (ELISA), PDZ domain 3; conditions: immobilized GST-PDZ domain 3 (P13); biotinylated peptide pre-bound to streptavidin-alkaline phosphatase; colorimetric phosphatase assay
T3 construct: 376-461; made in house; host or cells: E. coli
T3 sequence (O75970 376-461 isoform O75970-3): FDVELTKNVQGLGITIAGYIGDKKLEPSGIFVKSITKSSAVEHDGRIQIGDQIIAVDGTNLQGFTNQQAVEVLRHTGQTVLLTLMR
Description: as §1, §2

MMSC2 PDZ domain 4 (P10) = biological target: T4, MMSC2 PDZ domain 4 (P10) (Homo sapiens, UniProt O75970); assay: PDZ binding assay (ELISA), PDZ domain 4; conditions: immobilized GST-PDZ domain 4 (P10); biotinylated peptide pre-bound to streptavidin-alkaline phosphatase; colorimetric phosphatase assay
T4 construct: 555-632; made in house; host or cells: E. coli
T4 sequence (O75970 555-632 isoform O75970-3): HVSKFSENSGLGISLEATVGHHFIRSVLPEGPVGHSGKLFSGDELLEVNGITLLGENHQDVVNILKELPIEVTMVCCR
Description: as §1, §2

MMSC2 PDZ domain 5 (P12) = biological target: T5, MMSC2 PDZ domain 5 (P12) (Homo sapiens, UniProt O75970); assay: PDZ binding assay (ELISA), PDZ domain 5; conditions: immobilized GST-PDZ domain 5 (P12); biotinylated peptide pre-bound to streptavidin-alkaline phosphatase; colorimetric phosphatase assay
T5 construct: 699-785; made in house; host or cells: E. coli
T5 sequence (O75970 699-785 isoform O75970-3): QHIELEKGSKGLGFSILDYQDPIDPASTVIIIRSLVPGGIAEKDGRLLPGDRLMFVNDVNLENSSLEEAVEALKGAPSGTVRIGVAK
Description: as §1, §2

MMSC2 PDZ domain 6 (P11) = biological target: T6, MMSC2 PDZ domain 6 (P11) (Homo sapiens, UniProt O75970); assay: PDZ binding assay (ELISA), PDZ domain 6; conditions: immobilized GST-PDZ domain 6 (P11); biotinylated peptide pre-bound to streptavidin-alkaline phosphatase; colorimetric phosphatase assay
T6 construct: 1007-1090; made in house; host or cells: E. coli
T6 sequence (O75970 1007-1090 isoform O75970-3): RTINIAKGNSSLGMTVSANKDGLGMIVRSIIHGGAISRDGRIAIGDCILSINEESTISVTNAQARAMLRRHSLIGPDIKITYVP
Description: as §1, §2

MMSC2 PDZ domain 7 (P9) = biological target: T7, MMSC2 PDZ domain 7 (P9) (Homo sapiens, UniProt O75970); assay: PDZ binding assay (ELISA), PDZ domain 7; conditions: for A405: immobilized GST-PDZ domain 7 (P9), biotinylated peptide pre-bound to streptavidin-alkaline phosphatase, colorimetric phosphatase assay
T7 construct: 1150-1241; made in house; host or cells: E. coli
T7 sequence (O75970 1150-1241 isoform O75970-3): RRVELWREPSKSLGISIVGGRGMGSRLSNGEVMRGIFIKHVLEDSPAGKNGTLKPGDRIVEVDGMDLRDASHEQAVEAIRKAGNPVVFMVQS
Description: (§3) cDNAs encoding each of the MMSC2 PDZ domains (amino acid residues identified in Table 1), and any desired control proteins, were generated by PCR and subcloned as glutathione S-transferase (GST) fusions in pGEX vectors (Pharmacia). After sequencing to confirm expression construct integrity, the resulting clones were expressed in E. coli and the desired fusion proteins isolated with glutathione-agarose and recovered with glutathione elution. These fusion proteins or control proteins were then adsorbed to different wells of a 96-well ELISA plate and remaining sites blocked with BSA. Synthetic commercially synthesized peptides encoding the desired PDZ-binding domain (i.e., the 16 C-terminal amino acids of MMAC1, or the C-terminal peptide sequences of interacting proteins identified by the approach of Example 2, or the C-terminal peptide sequences identified by the approach of Example 3), or a control peptide, and biotinylated at the amino-terminus, were pre-bound to streptavidin-alkaline phosphatase in a 4:1 molar ratio. The biotinylated peptide streptavidin-alkaline phosphatase complexes were then blocked with free biotin. These pre-bound peptide streptavidin-alkaline phosphatase complexes were then incubated with the immobilized PDZ domains in wash buffer containing PBS, BSA and triton-X100. Unbound material was removed with repeated washes. Bound peptide/streptavidin-alkaline phosphatase complex was then quantitated by a colorimetric phosphatase assay read on a 96-well plate reader. The following peptides were used in the initial study:
as §2

MMSC2 PDZ domain 8 (P8) = biological target: T8, MMSC2 PDZ domain 8 (P8) (Homo sapiens, UniProt O75970); assay: PDZ binding assay (ELISA), PDZ domain 8; conditions: immobilized GST-PDZ domain 8 (P8); biotinylated peptide pre-bound to streptavidin-alkaline phosphatase; colorimetric phosphatase assay
T8 construct: 1316-1398; made in house; host or cells: E. coli
T8 sequence (O75970 1316-1398 isoform O75970-3): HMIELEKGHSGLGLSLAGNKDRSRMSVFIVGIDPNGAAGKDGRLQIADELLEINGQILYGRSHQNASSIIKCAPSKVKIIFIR
Description: as §1, §2

MMSC2 PDZ domain 9 (P7) = biological target: T9, MMSC2 PDZ domain 9 (P7) (Homo sapiens, UniProt O75970); assay: PDZ binding assay (ELISA), PDZ domain 9; conditions: immobilized GST-PDZ domain 9 (P7); biotinylated peptide pre-bound to streptavidin-alkaline phosphatase; colorimetric phosphatase assay
T9 construct: 1439-1529; made in house; host or cells: E. coli
T9 sequence (O75970 1439-1529 isoform O75970-3): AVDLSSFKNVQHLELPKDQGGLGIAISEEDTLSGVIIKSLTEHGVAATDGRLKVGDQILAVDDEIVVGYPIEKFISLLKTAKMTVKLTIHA
Description: as §1, §2

MMSC2 PDZ domain 10 (P1) = biological target: T10, MMSC2 PDZ domain 10 (P1) (Homo sapiens, UniProt O75970); assay: PDZ binding assay (ELISA), PDZ domain 10; conditions: for A405: immobilized GST-PDZ domain 10 (P1), biotinylated peptide pre-bound to streptavidin-alkaline phosphatase, colorimetric phosphatase assay
T10 construct: 1595-1677; made in house; host or cells: E. coli
T10 sequence (O75970 1595-1677 isoform O75970-3): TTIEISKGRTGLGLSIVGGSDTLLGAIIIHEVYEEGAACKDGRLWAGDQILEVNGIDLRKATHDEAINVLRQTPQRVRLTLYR
Description: as §3, §2

MMSC2 PDZ domain 11 (P2) = biological target: T11, MMSC2 PDZ domain 11 (P2) (Homo sapiens, UniProt O75970); assay: PDZ binding assay (ELISA), PDZ domain 11; conditions: immobilized GST-PDZ domain 11 (P2); biotinylated peptide pre-bound to streptavidin-alkaline phosphatase; colorimetric phosphatase assay
T11 construct: 1691-1772; made in house; host or cells: E. coli
T11 sequence (O75970 1691-1772 isoform O75970-3): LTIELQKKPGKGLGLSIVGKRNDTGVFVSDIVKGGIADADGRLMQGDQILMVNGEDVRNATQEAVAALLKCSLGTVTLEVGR
Description: as §1, §2

MMSC2 PDZ domain 12 (P3) = biological target: T12, MMSC2 PDZ domain 12 (P3) (Homo sapiens, UniProt O75970); assay: PDZ binding assay (ELISA), PDZ domain 12; conditions: immobilized GST-PDZ domain 12 (P3); biotinylated peptide pre-bound to streptavidin-alkaline phosphatase; colorimetric phosphatase assay
T12 construct: 1828-1913; made in house; host or cells: E. coli
T12 sequence (O75970 1828-1913 isoform O75970-3): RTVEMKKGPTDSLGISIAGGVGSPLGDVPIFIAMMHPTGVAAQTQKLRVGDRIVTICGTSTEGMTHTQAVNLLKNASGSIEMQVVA
Description: as §1, §2

MMSC2 PDZ domain 13 (P4) = biological target: T13, MMSC2 PDZ domain 13 (P4) (Homo sapiens, UniProt O75970); assay: PDZ binding assay (ELISA), PDZ domain 13; conditions: for A405: immobilized GST-PDZ domain 13 (P4), biotinylated peptide pre-bound to streptavidin-alkaline phosphatase, colorimetric phosphatase assay
T13 construct: 1953-2037; made in house; host or cells: E. coli
T13 sequence (O75970 1953-2037 isoform O75970-3): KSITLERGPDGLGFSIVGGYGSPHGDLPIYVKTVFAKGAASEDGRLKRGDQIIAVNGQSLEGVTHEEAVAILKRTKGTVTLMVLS
Description: as §3, §2

Substance | A405 (MMSC2 PDZ domain 1 (P15)) | A405 (MMSC2 PDZ domain 2 (P14)) | A405 (MMSC2 PDZ domain 3 (P13)) | A405 (MMSC2 PDZ domain 4 (P10)) | A405 (MMSC2 PDZ domain 5 (P12)) | A405 (MMSC2 PDZ domain 6 (P11)) | interaction of PDZ domain with MMAC1 (in words) (MMSC2 PDZ domain 7 (P9); PDZ domain number 7, 7 appearing stronger) | A405 (MMSC2 PDZ domain 7 (P9)) | A405 (MMSC2 PDZ domain 8 (P8)) | A405 (MMSC2 PDZ domain 9 (P7)) | interaction of PDZ domain with MMAC1 (in words) (MMSC2 PDZ domain 10 (P1); PDZ domain number 10) | A405 (MMSC2 PDZ domain 10 (P1)) | A405 (MMSC2 PDZ domain 11 (P2)) | A405 (MMSC2 PDZ domain 12 (P3)) | interaction of PDZ domain with MMAC1 (in words) (MMSC2 PDZ domain 13 (P4); PDZ domain number 13) | A405 (MMSC2 PDZ domain 13 (P4))
Biotin-ENEPFDEDQHTQITKV-OH [MMAC1] | 0.011 | 0.001 | 0.006 | 0.024 | 0.000 | 0.016 | interact | 0.667 | 0.006 | 0.017 | interact | 0.174 | 0.012 | 0.003 | interact | 0.456
Biotin-SGSGILAPPVPPRNTR-OH [SH3, reference compound] | 0.007 | 0.006 | 0.008 | 0.010 | 0.005 | 0.017 | – | 0.006 | 0.008 | 0.009 | – | 0.002 | 0.009 | 0.011 | – | 0.006

Reference: patent publication US20020115104A1, “MMSC2 - an MMAC1 interacting protein” (priority 1998, published 2002)
